# From PMC6471197, “Biological Activity and In Silico Study of 3-Modified Derivatives of Betulin and Betulinic Aldehyde” (International Journal of Molecular Sciences, 2019)
# Read-outs that look alike come from different tables or passages of the source.
# Key:
# [1] = test system: MV-4-11 (biphenotypic B myelomonocytic leukaemia) cell line; assay: MTT antiproliferative assay on MV-4-11 cells; assay type: cell-based, human; settings: MTT assay, Neg = negative in the concentration used
# Procedure: (§1) The applied human cell lines such as MV-4-11 (biphenotypic B myelomonocytic leukaemia), A549 (lung adenocarcinoma), Du-145 (prostate), Hs294T (melanoma), MCF-7 (breast adenocarcinoma) and MCF-10A (normal mammary gland) were obtained from the American Type Culture Collection (ATCC, Rockville, MD, USA). The all cell lines are maintained at the Cell Culture Collection of the Institute of Immunology and Experimental Therapy (Wrocław, Poland). The cells were plated in 96-well plates (Sarstedt, Newton, MA, USA) at a density of 1 × 10^4 cells per well in 100 µL of appropriate culture medium overnight. Biphenotypic B myelomonocytic leukaemia (MV-4-11) cells were cultured in RPMI 1640 medium (Gibco, Scotland, UK) with GlutaMAX (Thermo-Fisher Scientific, Warsaw, Poland) adjusted to contain 1.0 mM sodium pyruvate (Sigma-Aldrich, Chemie GmbH, Steinheim, Germany). Human lung adenocarcinoma (A549) cells were cultured in mixture RPMI 1640 and Opti-MEM medium (Gibco, Scotland, UK) supplemented with GlutaMAX (ThermoFisher Scientific, Warsaw, Poland) and 2mM L-glutamine adjusted to contain 1.0 mM sodium pyruvate. Human prostate (Du-145) and human breast adenocarcinoma (MCF-7) cells were cultured in Eagle medium (IIET, Wrocław, Poland), supplemented with 2 mM L-glutamine adjusted to contain 1.0 mM sodium pyruvate. Human melanoma (Hs294T) cells were cultured in Dulbecco medium (Gibco, Scotland, UK) supplemented with 2 mM L-glutamine. The normal human mammary gland cells (MCF-10A) were cultured in Ham’s F-12 medium containing 2 mM L-glutamine, 5% horse serum, epidermal growth factor EGF (100 μL/100 mL of medium), hydrocortisone (1 mL/ 100 mL of medium), insulin (100 μL/100 mL of medium) and cholera toxin (0.1 mL/100 mL of medium). All applied culture media except MCF-10A were supplemented with 10% of FBS (MV-4-11 cultured with FBS derived from Sigma-Aldrich, Chemie GmbH, Steinheim, Germany, the other cell lines FBS HyClone Thermo-Fisher Scientific, Warsaw, Poland) and streptomycin (100 µg/mL), penicillin (100 U/mL) (both from Polfa, Tarchomin, Poland). The tested cell lines were grown at 37 °C in humid atmosphere saturated with 5% CO2. In our studies were used two assays for determination the cytotoxic activity in vitro of triterpene derivatives. By dissolving 1 mg of each tested compound in 100 µL of DMSO, stock solutions at a 10 mg/mL were obtained. Next, the stock solutions were diluted in appropriate culture medium to reach the required concentrations of compounds ranging from 0.1 to 100 µg/mL. The MTT assay was used for the cytotoxicity screening against biphenotypic B myelomonocytic leukaemia (MV-4-11). The SRB assay was performed for adherent cells such as A549, Du-145, Hs294T, MCF-7 and MCF-10A. Both assays were carried as described by Wietrzyk et al.. The triterpenes in given concentration were examined in triplicates in each experiment, which was repeated 3 times. The results of anticancer activity in vitro were presented as an IC50 in µM. Cisplatin and betulin 1 were used as reference substances.
# [2] = test system: A549 (lung adenocarcinoma); assay: SRB antiproliferative assay on A549 cells; assay type: cell-based, human
# Procedure: as §1
# Du-145 (prostate) = assay: SRB antiproliferative assay on Du-145 cells; assay type: cell-based, human; settings: for IC50: SRB assay
# Procedure: as §1
# Hs294T (melanoma) = assay: SRB antiproliferative assay on Hs294T cells; assay type: cell-based, human; settings: for IC50: SRB assay
# Procedure: as §1
# [3] = test system: MCF-7 (breast adenocarcinoma); assay: SRB antiproliferative assay on MCF-7 cells; assay type: cell-based, human; settings: for IC50: SRB assay
# Procedure: as §1
# [4] = test system: MCF-10A (normal mammary gland); assay: SRB antiproliferative assay on MCF-10A cells; assay type: cell-based, human; settings: Neg = negative in the concentration used
# Procedure: as §1
# [5] = test system: A549, Du-145, Hs294T, MCF-7 and MCF-10A; assay: SRB antiproliferative assay, ranges over the cell line panel; assay type: cell-based; settings: Homo sapiens
# Procedure: The applied human cell lines such as MV-4-11 (biphenotypic B myelomonocytic leukaemia), A549 (lung adenocarcinoma), Du-145 (prostate), Hs294T (melanoma), MCF-7 (breast adenocarcinoma) and MCF-10A (normal mammary gland) were obtained from the American Type Culture Collection (ATCC, Rockville, MD, USA). The all cell lines are maintained at the Cell Culture Collection of the Institute of Immunology and Experimental Therapy (Wrocław, Poland). The cells were plated in 96-well plates (Sarstedt, Newton, MA, USA) at a density of 1 × 10^4 cells per well in 100 µL of appropriate culture medium overnight. Biphenotypic B myelomonocytic leukaemia (MV-4-11) cells were cultured in RPMI 1640 medium (Gibco, Scotland, UK) with GlutaMAX (Thermo-Fisher Scientific, Warsaw, Poland) adjusted to contain 1.0 mM sodium pyruvate (Sigma-Aldrich, Chemie GmbH, Steinheim, Germany). Human lung adenocarcinoma (A549) cells were cultured in mixture RPMI 1640 and Opti-MEM medium (Gibco, Scotland, UK) supplemented with GlutaMAX (ThermoFisher Scientific, Warsaw, Poland) and 2mM L-glutamine adjusted to contain 1.0 mM sodium pyruvate. Human prostate (Du-145) and human breast adenocarcinoma (MCF-7) cells were cultured in Eagle medium (IIET, Wrocław, Poland), supplemented with 2 mM L-glutamine adjusted to contain 1.0 mM sodium pyruvate. […]
# [6] = SI = IC50 for normal mammary gland (MCF-10A)/IC50 on tumour cell line
smiles,measurement,setting,value
"C=C(C)[C@@H]1CC[C@]2(CO)CC[C@]3(C)[C@H](CC[C@@H]4[C@@]5(C)CC[C@H](O)C(C)(C)[C@@H]5CC[C@]43C)[C@@H]12 [Betulin 1, betulin]",IC50,"[1]; Homo sapiens, MV4-11",8.1 ± 2.9 µM
same,IC50,"[2]; Homo sapiens, A549",8.6 ± 0.7 µM
same,IC50,"Du-145 (prostate); Homo sapiens, DU-145",44 ± 19.4 µM
same,IC50,"Hs294T (melanoma); Homo sapiens, Hs 294T",44.1 ± 7.2 µM
same,IC50,"[3]; Homo sapiens, MCF7",26.2 ± 6.5 µM
same,IC50,"[4]; Homo sapiens, MCF-10A",124 ± 41.6 µM
"N.N.[Cl][Pt][Cl] [Cisplatin, reference compound]",IC50,[1],1 ± 0.27 µM
same,IC50,[2],4.3 ± 1.3 µM
same,IC50,Du-145 (prostate),1.6 ± 0.3 µM
same,IC50,Hs294T (melanoma),6.3 ± 1.3 µM
same,IC50,[3],7.7 ± 0.3 µM
same,IC50,[4],14.7 ± 1 µM
"C=C(C)C1CC[C@]2(CO)CC[C@]3(C)C(CCC4[C@@]5(C)CC[C@H](OC(C)=O)C(C)(C)C5CC[C@]43C)C12 (stereo partly drawn) [Compound 2, 3-acetylbetulin, reference compound]",IC50,"[1]; Homo sapiens, MV4-11",27.2 ± 5.9 µM
"C=C(C)C1CC[C@]2(C=O)CC[C@]3(C)C(CCC4[C@@]5(C)CC[C@H](OC(C)=O)C(C)(C)C5CC[C@]43C)C12 (stereo partly drawn) [Compound 3, 3-acetylbetulinic aldehyde, reference compound]",IC50,"[1]; Homo sapiens, MV4-11",35 ± 12.8 µM
"C=C(C)C1CC[C@]2(CO)CC[C@]3(C)C(CCC4[C@@]5(C)CC[C@H](OC(=O)CC)C(C)(C)C5CC[C@]43C)C12 (stereo partly drawn) [Compound 5, 3-Propanoylbetulin]",IC50,"[1]; Homo sapiens, MV4-11",38.9 ± 11.8 µM
"C=CC(=O)O[C@H]1CC[C@@]2(C)C(CC[C@]3(C)C2CCC2C4C(C(=C)C)CC[C@]4(CO)CC[C@]23C)C1(C)C (stereo partly drawn) [Compound 6, 3-(2-Propenoyl)betulin]",IC50,"[1]; Homo sapiens, MV4-11",4.2 ± 1.2 µM
same,IC50,"[2]; Homo sapiens, A549",23.3 ± 1.8 µM
same,IC50,"Du-145 (prostate); Homo sapiens, DU-145",84.5 ± 39.4 µM
same,IC50,"[3]; Homo sapiens, MCF7",45.9 ± 3.8 µM
same,IC50,"[4]; Homo sapiens, MCF-10A",120 ± 15.3 µM
"C=C(C)C1CC[C@]2(CO)CC[C@]3(C)C(CCC4[C@@]5(C)CC[C@H](OC(=O)C#CC6CC6)C(C)(C)C5CC[C@]43C)C12 (stereo partly drawn) [Compound 7, 3-(3-Cyclopropyl-2-propynoyl)betulin]",IC50,"[1]; Homo sapiens, MV4-11",62.4 ± 9.9 µM
"C=C(C)C1CC[C@]2(CO)CC[C@]3(C)C(CCC4[C@@]5(C)CC[C@H](OC(=O)C#Cc6ccccc6)C(C)(C)C5CC[C@]43C)C12 (stereo partly drawn) [Compound 8, 3-Phenylpropynoylbetulin]",MV-4-11 IC50,[1],Neg
"C=C(C)C1CC[C@]2(CO)CC[C@]3(C)C(CCC4[C@@]5(C)CC[C@H](OC(=O)C#CC)C(C)(C)C5CC[C@]43C)C12 (stereo partly drawn) [Compound 9, 3-(2-Butynoyl)betulin]",IC50,"[1]; Homo sapiens, MV4-11",4.5 ± 1.7 µM
same,IC50,"[2]; Homo sapiens, A549",83.5 ± 25.3 µM
same,IC50,"Du-145 (prostate); Homo sapiens, DU-145",7.3 ± 0.8 µM
same,Selectivity Index (SI) towards Du-145,Du-145 (prostate); [6],9.82
same,IC50,"Hs294T (melanoma); Homo sapiens, Hs 294T",10.6 ± 4.3 µM
same,Selectivity Index (SI) towards Hs294T,Hs294T (melanoma); [6],6.76
same,IC50,"[3]; Homo sapiens, MCF7",10.4 ± 5.7 µM
same,Selectivity Index (SI) towards MCF-7,[3]; [6],6.89
same,IC50,"[4]; Homo sapiens, MCF-10A",71.7 ± 8.6 µM
same,IC50,"[5]; range over A549, Du-145, Hs294T, MCF-7, MCF-10A, read-out: IC50 against the tested cell lines",7.3 to 83.5 µM
same,IC50,"[5]; range over the three cell lines, read-out: IC50 towards Du-145, MCF-7 and Hs294T cells",7.3 to 10.6 µM
"C=C(C)C1CC[C@]2(CO)CC[C@]3(C)C(CCC4[C@@]5(C)CC[C@H](OC(=O)OCC)C(C)(C)C5CC[C@]43C)C12 (stereo partly drawn) [Compound 10, 3-Ethoxycarbonylbetulin]",IC50,"[1]; Homo sapiens, MV4-11",20 ± 1.5 µM
"C=C(C)C1CC[C@]2(CO)CC[C@]3(C)C(CCC4[C@@]5(C)CC[C@H](OC(=O)OCCC)C(C)(C)C5CC[C@]43C)C12 (stereo partly drawn) [Compound 11, 3-Propoxycarbonylbetulin]",IC50,"[1]; Homo sapiens, MV4-11",30.8 ± 1.5 µM
"C=CCOC(=O)O[C@H]1CC[C@@]2(C)C(CC[C@]3(C)C2CCC2C4C(C(=C)C)CC[C@]4(CO)CC[C@]23C)C1(C)C (stereo partly drawn) [Compound 12, 3-Allyloxycarbonylbetulin]",IC50,"[1]; Homo sapiens, MV4-11",20.1 ± 4.7 µM
